Experimental data published in patent publication US20230065158A1, “OXABICYCLOHEPTANES FOR TREATMENT OF SMALL CELL LUNG CANCER” (Lixte Biotechnology, Inc., priority 2021, published 2023).

What was measured:
H524 cells = experiment: Cell Counting Kit-8 cytotoxicity and drug combination, H524; settings: Homo sapiens, NCI-H524, 72 h, read-out: Cytotoxicity IC50, H524; 72 hours
Method: (§1) A Mann-Whitney U test was used for comparison between the normal and SCLC samples. FIG. 1B: IHC for PP2A was conducted on TMA tissue sections and images were captured at 4× or 20× using a 3D-Histech PANNORAMIC SCAN whole slide scanner (3D-Histech, Budapest, Hungary). […] TMAs were scored in normal (n=24) and tumor (n=79) cores on a scale from 0 (no staining/no protein expression) to 3+(strong staining/high protein expression). FIG. 1C: Summary bar graph of the average PP2A subunit staining. IHC staining intensity of normal and tumor cores. […] FIG. 1D: In order to compare the expression of PP2A subunits A and C, cell lysates from seven SCLC cell lines and HBEC 3KT (non-malignant cell line) were subjected to western blotting. FIG. 1E: PP2A activity was determined using a serine/threonine phosphatase activity assay (Millipore) after 24 h exposure to cantharidin (10 μM) and LB-100 (5 μM). […] The Cell Counting Kit-8 assay detected cell H524 and H69 cell viability. […] FIGS. 1I-1K: Graphs depict the mean+SEM of percent viability for cells (n=3). Colony formation assays were used to count the ability of H524 (FIGS. 11 and 1J) and H69 (FIGS. 1K and 1L) cells to form colonies. […] Representative images of colonies at 4× are shown under the graph (n=2).*p<0.05; **, p<0.01; *** p<0.001; ****, p<0.0001. Experiments were repeated in triplicate and representative data are shown.

H69 cells = experiment: Cell Counting Kit-8 cytotoxicity and drug combination, H69; settings: Homo sapiens, NCI-H69, 72 h, read-out: Cytotoxicity IC50, H69; 72 hours
Method: as §1

H524 and H69 cells = experiment: Colony formation assay; assay type: cell-based; settings: both cell lines; H524/H69: LB-100 2.5/20 μM, carboplatin 4/20 μM, etoposide 3/30 μM
Method: as §1

H82 cells = experiment: Cell Counting Kit-8 cytotoxicity, H82; settings: Homo sapiens, NCI-H82, 72 h, read-out: Cytotoxicity IC50, H82
Source text: (§2) To determine specific cytotoxicity, we used Cell Counting Kit-8 (Dojindo Molecular Technologies, Rockville, Md.) as previously described (50).

H526 cells = experiment: Cell Counting Kit-8 cytotoxicity, H526; settings: Homo sapiens, NCI-H526, 72 h, read-out: Cytotoxicity IC50, H526
Source text: as §2

H446 cells = experiment: Cell Counting Kit-8 cytotoxicity, H446; settings: Homo sapiens, NCI-H446, 72 h, read-out: Cytotoxicity IC50, H446
Source text: as §2

H146 cells = experiment: Cell Counting Kit-8 cytotoxicity, H146; settings: Homo sapiens, NCI-H146, 72 h, read-out: Cytotoxicity IC50, H146
Source text: as §2

PP2A = target: T1, PP2A (Homo sapiens, UniProt P67775); experiment: PP2A immunoprecipitation Ser/Thr phosphatase activity assay in treated H524 cells; assay type: cell-based; settings: cantharidin 10 μM, 24 h
T1 construct: endogenous in cells; host or cells: H524 (human SCLC) cells
T1 sequence (P67775 whole entry): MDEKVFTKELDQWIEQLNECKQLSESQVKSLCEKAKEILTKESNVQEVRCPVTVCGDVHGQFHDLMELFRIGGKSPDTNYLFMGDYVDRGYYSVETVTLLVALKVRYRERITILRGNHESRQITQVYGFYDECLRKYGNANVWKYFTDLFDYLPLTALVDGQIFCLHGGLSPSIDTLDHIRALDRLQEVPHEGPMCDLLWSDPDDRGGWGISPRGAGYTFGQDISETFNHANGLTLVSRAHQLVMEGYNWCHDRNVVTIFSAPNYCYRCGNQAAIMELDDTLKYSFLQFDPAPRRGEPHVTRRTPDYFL
T1 sequence (P30153 whole entry partner): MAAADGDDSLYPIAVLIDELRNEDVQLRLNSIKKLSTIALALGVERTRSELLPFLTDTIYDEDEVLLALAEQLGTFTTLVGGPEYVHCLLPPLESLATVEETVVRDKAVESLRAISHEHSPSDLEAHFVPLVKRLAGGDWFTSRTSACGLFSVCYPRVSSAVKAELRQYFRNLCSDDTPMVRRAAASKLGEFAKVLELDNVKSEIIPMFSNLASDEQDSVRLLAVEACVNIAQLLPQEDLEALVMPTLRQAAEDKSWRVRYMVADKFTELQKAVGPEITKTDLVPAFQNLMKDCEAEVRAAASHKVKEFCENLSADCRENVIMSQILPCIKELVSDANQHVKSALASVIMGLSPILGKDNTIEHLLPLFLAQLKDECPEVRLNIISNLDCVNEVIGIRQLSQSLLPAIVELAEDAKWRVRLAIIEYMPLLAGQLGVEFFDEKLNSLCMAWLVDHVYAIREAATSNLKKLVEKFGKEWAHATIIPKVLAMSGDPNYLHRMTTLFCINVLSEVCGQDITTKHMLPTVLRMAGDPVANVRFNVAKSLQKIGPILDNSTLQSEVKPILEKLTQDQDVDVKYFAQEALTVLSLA
Method: FIGS. 1A-IL depict the effects of LB-100 on PP2A-A expression in SCLC tumors and cells. […] A Mann-Whitney U test was used for comparison between the normal and SCLC samples. FIG. 1B: IHC for PP2A was conducted on TMA tissue sections and images were captured at 4× or 20× using a 3D-Histech PANNORAMIC SCAN whole slide scanner (3D-Histech, Budapest, Hungary). […] TMAs were scored in normal (n=24) and tumor (n=79) cores on a scale from 0 (no staining/no protein expression) to 3+(strong staining/high protein expression). FIG. 1C: Summary bar graph of the average PP2A subunit staining. IHC staining intensity of normal and tumor cores. There was a statistically significant difference between normal and tumor tissue (p<0.001). FIG. 1D: In order to compare the expression of PP2A subunits A and C, cell lysates from seven SCLC cell lines and HBEC 3KT (non-malignant cell line) were subjected to western blotting. FIG. 1E: PP2A activity was determined using a serine/threonine phosphatase activity assay (Millipore) after 24 h exposure to cantharidin (10 μM) and LB-100 (5 μM). […] LB-100 alone or in combination with carboplatin inhibited proliferation and colony formation in SCLC cells. The Cell Counting Kit-8 assay detected cell H524 and H69 cell viability. […] FIGS. 1I-1K: Graphs depict the mean+SEM of percent viability for cells (n=3). […]

H446 spheroids = H446 spheroids with drugs and T cells, live imaging; assay type: cell-based; settings: without T cells, 48 h
Method: FIGS. 7A-7G depict results of T cells infiltration in H446 spheroids in the presence of LB100 and atezolizumab. FIG. 7A: Schematic of the effect of activated T cells on H446 spheroid degradation. At time point 0, single spheroids in 96 well plate were treated with LB-100, atezolizumab and T cells. Beads mimic in vivo T cell activation by two action signals CD3 and CD28. IncuCyte® Live-Cell Analysis System was used for the spheroidal imaging. Right panel presents spheroidal degeneration after 48 h incubation with LB-100, atezolizumab and activated T cells. FIGS. 7B and 7C: Automated image analysis provides metrics (0 h-μm, […]) and spheroid area (yellow-bright field mask). Column bars present mean values of spheroids at 0h. Representative images in bright field mask. […]
Cytotoxic CD8+ cells were isolated from whole blood, buffy coat of healthy donors following the protocol described in the Methods. […] Spheroid survival was monitored for 48 hours and their diameters were measured from phase contrast images. […]
H446 were generated as described in Materials and Methods (Monitoring of spheroid growth and cytotoxicity with the IncuCyte® Live-Cell Analysis System and IncuCyte® Cytotox reagent) following incubation with T cells and drugs. The effect of LB100 and atezolizumab in the presence of T cells was monitored with IncuCyte 3D Multi-Tumor Spheroid assay.

COc1cc([C@@H]2c3cc4c(cc3[C@@H](O[C@@H]3O[C@@H]5CO[C@@H](C)O[C@H]5[C@H](O)[C@H]3O)[C@H]3COC(=O)[C@H]23)OCO4)cc(OC)c1O [Etoposide]
IC50 (H524 cells): 3 µM | IC50 (H69 cells): 30 µM | colony formation (H524 and H69 cells): significantly reduced colony formation | IC50 (H82 cells): 22.6 µM | IC50 (H526 cells): 2.8 µM | IC50 (H446 cells): 3 µM | IC50 (H146 cells): 31.2 µM

C[C@@]12C(=O)OC(=O)[C@]1(C)[C@H]1CC[C@@H]2O1 [cantharidin, reference compound]
PP2A activity reduced by (PP2A): ~90%

atezolizumab: humanized immunoglobulin (Ig) G1 monoclonal antibody that targets PD-L1 [reference compound]
effect on spheroids (degeneration), drug alone (H446 spheroids): no effect
